Data as given in patent US20210395210A1, “INHIBITION OF BACTERIAL CHAPERONIN SYSTEMS” (THE TRUSTEES OF INDIANA UNIVERSITY, priority 2018, published 2021).
Where two headings read alike, the source gives them in different places.

Columns and labels:
human HSP60/10 = target: T1, human HSP60/10 (Homo sapiens, UniProt P10809); test: HSP60/10-mediated dMDH refolding assay; type: biochemical; conditions: human HSP60/10-dMDH refolding assay
T1 construct: octa-Histidine tag (TEV-cleavable) (N, cleaved yes); made in house; host or cells: HSP60 in E. coli Rosetta 2 (DE3); HSP10 in Rosetta 2 (DE3) pLysS
T1 sequence (P10809 27-573): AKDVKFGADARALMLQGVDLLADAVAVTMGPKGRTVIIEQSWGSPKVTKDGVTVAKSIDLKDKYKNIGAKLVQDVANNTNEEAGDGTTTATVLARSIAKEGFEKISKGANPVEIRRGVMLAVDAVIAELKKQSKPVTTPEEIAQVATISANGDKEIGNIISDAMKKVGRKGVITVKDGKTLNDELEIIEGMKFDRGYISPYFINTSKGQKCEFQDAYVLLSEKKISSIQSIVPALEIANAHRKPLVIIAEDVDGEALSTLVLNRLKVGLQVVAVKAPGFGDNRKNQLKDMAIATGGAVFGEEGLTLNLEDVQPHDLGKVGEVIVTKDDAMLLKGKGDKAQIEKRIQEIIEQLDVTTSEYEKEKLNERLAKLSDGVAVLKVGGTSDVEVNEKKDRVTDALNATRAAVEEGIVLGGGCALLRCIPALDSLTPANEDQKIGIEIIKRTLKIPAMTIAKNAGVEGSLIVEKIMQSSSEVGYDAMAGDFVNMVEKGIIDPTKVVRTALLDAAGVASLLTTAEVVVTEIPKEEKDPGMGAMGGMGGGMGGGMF
Method: Reagent preparation: For these assays, four primary reagent stocks were prepared: 1) GroEUES-dMDH or HSP60/10-dMDH binary complex stock; 2) ATP initiation stock; 3) EDTA quench stock; 4) MDH enzymatic assay stock. Denatured MDH (dMDH) was prepared by 2-fold dilution of MDH (5 mg/ml, soluble pig heart MDH from Roche, product #10127248001) with denaturant buffer (7 M guanidine-HCl, 200 mM Tris, pH 7.4, and 50 mM DTT). MDH was completely denatured by incubating at room temperature for 45 min. The binary complex solutions were prepared by slowly adding the dMDH stock to a stirring stock with GroEL (or HSP60) in folding buffer (50 mM Tris-HCl, pH 7.4, 50 mM KCl, 10 mM MgCl2, and 1 mM DTT), followed by addition of GroES (or HSP10). The binary complex stocks were prepared immediately prior to dispensing into the assay plates and had final protein concentrations of 83.3 nM GroEL (Mr 800 kDa) or HSP60 (Mr 400 kDa), 100 nM GroES or HSP10 (Mr 70 kDa), and 20 nM dMDH in folding buffer. For the ATP initiation stock, ATP solid was diluted into folding buffer to a final concentration of 2.5 mM. Quench solution contained 600 mM EDTA (pH 8.0). The MDH enzymatic assay stock consisted of 20 mM sodium mesoxalate and 2.4 mM NADH in reaction buffer (50 mM Tris-HCl, pH 7.4, 50 mM KCl, and 1 mM DTT).
Assay Protocol: First, 30 μL aliquots of the GroEL/ES-dMDH or HSP60/10-dMDH binary complex stocks were dispensed into clear, 384-well polystyrene plates. […] The chaperonin-mediated refolding cycles were initiated by addition of 20 μL of ATP stock (reagent concentrations during refolding cycle: 50 nM GroEL or HSP60, 60 nM GroES or HSP10, 12 nM dMDH, 1 mM ATP, and compounds of 100 μM to 46 nM, 3-fold dilution series). The refolding reactions were incubated at 37° C. […] Next, the assay was quenched by addition of 10 μL of the EDTA to final concentration of 100 mM. […] A340 nm measurements were recorded at 0.5 minutes (start point) and at successive time points until the amount of NADH consumed reached ˜90% (end point, generally between 20-35 minutes). The differences between the start and end point A340 values were used to calculate the % inhibition of the GroEL/ES or HSP60/10 machinery by the compounds. […] Results presented represent the averages of IC50 values obtained from at least quadriplicate (duplicate of duplicate) replicates.

[1] = system: Enterococcus faecium (ATCC 19434); test: Bacterial proliferation assay, E. faecium; type: cell-based
Text: (§1) Bacterial Strains: Enterococcus faecium—(Orla-Jensen) Schleifer and Kilpper-Balz strain NCTC 7171 (ATCC 19434); Drug sensitive Staphylococcus aureus—Rosenbranch strain Seattle 1945 (ATCC 25923); Methicillin resistant S. aureus (MRSA)—Rosenbach strain HPV107 (ATCC BAA-44); Klebsiella Pneumonia—(Schroeter) Trevisan strain NCTC 9633 (ATCC 13883); Acinetobacter baumannii—Bouvet and Grimont strain 2208 (ATCC 19606); Pseudomonas aeruginosa—(Schroeter) Migula strain NCTC 10332 (ATCC 10145); Enterobacter cloacae—E. cloacae, subsp. cloacae (Jordan) Hormaeche and Edwards strain CDC 442-68 (ATCC 13047).
(§2) Growth Media: All bacteria were grown in Brain Heart Infusion (BHI) broth/agar (Becton, Dickinson and Company). All liquid cultures were grown in BHI media supplemented with 25 mg/L Ca^2+ and 12.5 mg/L Mg^2+ to mimic free physiological concentrations of these cations. A 10 mg/mL Ca^2+ stock solution was prepared by dissolving 3.68 g of CaCl2.2H2O in 100 mL of deionized water, and a 10 mg/mL Mg^2+ stock solution was prepared by dissolving 8.36 g of MgCl2.6H2O in 100 mL deionized water. Both stock solutions were filter-sterilized using 0.2 μm pore size cellulose-acetate filters. 2.5 mL of the sterile 10 mg/mL Ca^2+ stock and 1.25 mL of the sterile 10 mg/mL Mg^2+ stock solutions were added per 1 L of autoclaved BHI medium to obtain 25 mg/L Ca^2+ and 12.5 mg/L Mg^2+ ions, respectively.
(§3) General Assay Protocol: Stock bacterial cultures were streaked onto BHI agar plates and grown overnight at 37° C. Fresh aliquots of broth were inoculated with single bacterial colonies and the cultures were grown overnight at 37° C. with shaking (240 rpm) in cation adjusted BHI media. The following morning, the overnight cultures were sub-cultured (1:5 dilution) into fresh aliquots of cation adjusted BHI media and grown at 37° C. for 1-2 hours with shaking. After 2 h, cultures were diluted into fresh media to achieve final OD600 readings of 0.017. Aliquots of these diluted cultures (30 μL) were added to clear, flat-bottom, 384-well polystyrene plates that were stamped with 0.5 μL of test compounds in 20 μL media. […] Plates were sealed with “Breathe Easy” oxygen permeable membranes (Diversified Biotech) and left to incubate at 37° C. without shaking (stagnant assay). OD600 nm readings were taken at either 6-8 h (S. aureus, MRSA, K. pneumonia, E. cloacae, and P. aeruginosa) or 24 h (E. faecium and A. baumannii). A second set of baseline control plates were prepared analogously, but without any bacteria added, to correct for possible compound absorbance and/or precipitation. Plates were then read at 600 nm using a Molecular Devices SpectraMax Plus384 microplate reader. […] Results presented represent the averages of EC50 values obtained from at quadriplicate (duplicate of duplicate) replicates.

[2] = system: Drug sensitive Staphylococcus aureus (ATCC 25923); test: Bacterial proliferation assay, drug sensitive S. aureus; type: cell-based
Text: as §1, §2, §3

[3] = system: Klebsiella Pneumonia (ATCC 13883); test: Bacterial proliferation assay, K. pneumoniae; type: cell-based
Text: as §1, §2, §3

[4] = system: Pseudomonas aeruginosa (ATCC 10145); test: Bacterial proliferation assay, P. aeruginosa; type: cell-based
Text: as §1, §2, §3

[5] = read-out: HSP60/10-dMDH Refolding IC50
[6] = log(IC50) ± standard deviation, read-out: HSP60/10-dMDH Refolding Assay log(IC50) (converted)
[7] = ATCC19434, 24 h, read-out: Bacterial Proliferation EC50 E. faecium
[8] = ATCC19434, read-out: log(EC50) Bacterial Proliferation Assay C. faecium (converted)
[9] = ATCC25923, read-out: Bacterial Proliferation EC50 S. aureus Sensitive
[10] = ATCC25923, read-out: log(EC50) Bacterial Proliferation Assay S. aureus Sensitive (converted)
[11] = ATCC13883, read-out: Bacterial Proliferation EC50 K. pneumoniae
[12] = ATCC13883, read-out: log(EC50) Bacterial Proliferation Assay K. pneumoniae (converted)
[13] = ATCC10145, read-out: Bacterial Proliferation EC50 P. aeruginosa
[14] = ATCC10145, read-out: log(EC50) Bacterial Proliferation Assay P. aeruginosa (converted)
[15] = ATCC19434, OD600 at 24 h, read-out: Bacterial Proliferation EC50 E. faecium
[16] = ATCC19434, log of EC50 (μM scale), with standard deviation, read-out: log(EC50) Bacterial Proliferation Assay C. faecium (converted)
[17] = ATCC25923, OD600 at 6-8 h, read-out: Bacterial Proliferation EC50 S. aureus Sensitive
[18] = ATCC25923, log of EC50 (μM scale), with standard deviation, read-out: log(EC50) Bacterial Proliferation Assay S. aureus Sensitive (converted)
[19] = ATCC13883, OD600 at 6-8 h, read-out: Bacterial Proliferation EC50 K. pneumoniae
[20] = ATCC13883, log of EC50 (μM scale), with standard deviation, read-out: log(EC50) Bacterial Proliferation Assay K. pneumoniae (converted)
[21] = ATCC10145, OD600 at 6-8 h, read-out: Bacterial Proliferation EC50 P. aeruginosa
[22] = ATCC10145, log of EC50 (μM scale), with standard deviation, read-out: log(EC50) Bacterial Proliferation Assay P. aeruginosa (converted)

| SMILES | IC50 (human HSP60/10; [5]) [µM] | IC50 (human HSP60/10; [6]) [µM] | EC50 [1, 7] [µM] | EC50 [1, 8] [µM] | EC50 [2, 9] [µM] | EC50 [2, 10] [µM] | EC50 [3, 11] [µM] | EC50 [3, 12] [µM] | EC50 [4, 13] [µM] | EC50 [4, 14] [µM] | EC50 [1, 15] [µM] | EC50 [1, 16] [µM] | EC50 [2, 17] [µM] | EC50 [2, 18] [µM] | EC50 [3, 19] [µM] | EC50 [3, 20] [µM] | EC50 [4, 21] [µM] | EC50 [4, 22] [µM] | EC50 ([2]; ATCC25923, read-out: S. aureus Proliferation & Biofilm Assay EC50 Planktonic Growth) [µM] |
| --- | --- | --- | --- | --- | --- | --- | --- | --- | --- | --- | --- | --- | --- | --- | --- | --- | --- | --- | --- |
| O=C(Nc1ccccc1)c1cc(Br)cc(Br)c1O [Compound 13, 3,5-Dibromo-2-hydroxy-N-phenylbenzamide] | 63 | 63.1 | > 100 | > 100 | 1.2 | 1.23 | > 100 | > 100 | > 100 | > 100 |  |  |  |  |  |  |  |  |  |
| O=C(Nc1ccc(Sc2nc3ccccc3s2)cc1)c1cc(Br)cc(Br)c1 [Compound 20, N-(4-(Benzo[d]thiazol-2-ylthio)phenyl)-3,5-dibromobenzamide] | > 100 | > 100 |  |  |  |  |  |  |  |  | > 100 | > 100 | > 100 | > 100 | > 100 | > 100 | > 100 | > 100 |  |
| O=C(Nc1ccc(Sc2nc3ccccc3s2)c(Cl)c1)c1ccccc1O [Compound 4, N-(4-(Benzo[d]thiazol-2-ylthio)-3-chlorophenyl)-2-hydroxybenzamide] | > 100 | > 100 |  |  |  |  |  |  |  |  | 64 | 63.1 | 0.31 | 0.309 | > 100 | > 100 | > 100 | > 100 |  |
| COc1ccccc1C(=O)Nc1cccc(Cl)c1 [Compound 40, N-(3-Chlorophenyl)-2-methoxybenzamide] | > 100 | > 100 |  |  |  |  |  |  |  |  | > 100 | > 100 | > 100 | > 100 | > 100 | > 100 | > 100 | > 100 |  |
| COc1ccccc1C(=O)Nc1ccccc1 [Compound 44, 2-Methoxy-N-phenylbenzamide] | > 100 | > 100 |  |  |  |  |  |  |  |  | > 100 | > 100 | > 100 | > 100 | > 100 | > 100 | > 100 | > 100 |  |
| O=C(Nc1ccc(Sc2nc3ccccc3s2)c(Cl)c1)c1cc(Br)cc(Br)c1 [Compound 17, N-(4-(Benzo[d]thiazol-2-ylthio)-3-chlorophenyl)-3,5-dibromobenzamide] | > 100 | > 100 |  |  |  |  |  |  |  |  | > 100 | > 100 | > 100 | > 100 | > 100 | > 100 | > 100 | > 100 |  |
| O=C(Nc1ccc(Sc2nc3ccccc3s2)cc1)c1cc(Br)ccc1O [Compound 7, N-(4-(Benzo[d]thiazol-2-ylthio)phenyl)-5-bromo-2-hydroxybenzamide] | > 100 | > 100 | 19 | 19.5 | 0.12 | 0.12 | > 100 | > 100 | > 100 | > 100 |  |  |  |  |  |  |  |  |  |
| O=C(Nc1cccc(Cl)c1)c1cc(Br)cc(Br)c1O [Compound 9, 3,5-Dibromo-N-(3-chlorophenyl)-2-hydroxybenzamide] | 29 | 28.8 | 73 | 72.4 | 0.66 | 0.661 | 95 | 95.5 | > 100 | > 100 |  |  |  |  |  |  |  |  |  |
| O=C(Nc1ccc(Sc2nc3ccccc3s2)c(Cl)c1)c1cccc(Br)c1 [Compound 18, N-(4-(Benzo[d]thiazol-2-ylthio)-3-chlorophenyl)-3-bromobenzamide] | > 100 | > 100 |  |  |  |  |  |  |  |  | > 100 | > 100 | > 100 | > 100 | > 100 | > 100 | > 100 | > 100 |  |
| O=C(Nc1ccc(Sc2nc3ccccc3s2)c(Cl)c1)c1cc(Br)cc(Br)c1O [Compound 1, N-(4-(Benzo[d]thiazol-2-ylthio)-3-chlorophenyl)-3,5-dibromo-2-hydroxybenzamide] | 4.2 | 4.17 | 0.52 | 0.513 | 0.36 | 0.363 | > 100 | > 100 | > 100 | > 100 |  |  |  |  |  |  |  |  | 0.36 |
